Measurements from PMC4372538, “Advantages of the Phosphatidylserine-Recognizing Peptide PSP1 for Molecular Imaging of Tumor Apoptosis Compared with Annexin V” (PLoS ONE, 2015).
pKd: −log10 of the molar value. “Also recorded” adds a separate entry of the source. Where no end group is shown, it is not given here.

Key:
[1] = tested on: apoptotic H460 cells; experiment: FACS binding to apoptotic H460 cells; format: cell-based, human; settings: FITC-labeled; for binding of PSP1 mutants to apoptotic H460 cells (FACS): 10 μg/ml, vs PSP1, 4°C, n = 3
Procedure: (§1) The human lung cancer cell H460, which was obtained from the American Type Culture Collection (ATCC), was maintained in RPMI-1640 media supplemented with 10% heat-inactivated fetal bovine serum (FBS) and penicillin G/streptomycin at 37°C in a humidified atmosphere of 95% air and 5% CO2.
(§2) To induce apoptosis of lung tumor cells (H460), the cells (5×10^6 cell) were grown overnight and then treated with etoposide (50 μM) (Sigma) in serum-free media for 22 hrs, followed by washing with phosphate-buffered saline (PBS) and binding buffer (10 mM Hepes (pH 7.4), 150 mM NaCl, and 2 mM CaCl2).
(§3) Control peptide (grey); FITC-NSSSVDK.

[2] = tested on: normal H460 cells; experiment: FACS binding to normal H460 cells; format: cell-based, human; settings: FITC-labeled, 10 μg/ml; n = 3
Procedure: as §1, §2, §3

[3] = tested on: apoptotic tumor cells in H460 tumor-bearing mice; experiment: in vivo fluorescence imaging of tumors after apoptosis induction; parameters: species or system BALB/c nude mice; human H460 tumor; settings: for in vivo tumor homing: i.v., camptothecin-treated H460 tumor-bearing mice, n = 5, imaging 10 min to 12 h, PSP1 10 μg/200 μl, annexin V and control peptide 100 μg/200 μl
Procedure: (§4) Female nude mice (BALB/c nude; body weight, 20±3 g; n = 5) were housed in a specific pathogen-free environment at 22±2°C and 55±5% relative humidity with light. Tumors were generated by subcutaneously injecting H460 cells (5×10^6 cells) into the right shoulder of 6-wk-old female BALB/c nude mice and allowing them to grow for 3 weeks (size of 0.5 to 0.7 cm). For in vivo analysis of tumor targeting, the tumor-bearing mice were either treated or not treated with a single dose of camptothecin (10 mg/kg) 24 hrs prior to intravenous injection of Cy7.5-labeled PSP1, Cy7.5-annexin V or Cy7.5-labeled control peptide into the tail vein under inhalational anesthesia (1% (w/v) isoflurane in 2 L oxygen).
In vivo fluorescence images were taken at different time intervals after peptide injection (10 min, 1 h, 3 h, 6 h, and 12 h) using an eXplore Optix system (ART Advanced Research Technologies Inc., Montreal, Canada), which has excitation/emission wavelengths of 778 nm/805 nm. The obtained images were processed using eXplore Optix OptiView Software and normalized based on the baseline fluorescence, assessed for each mouse prior to peptide injection.
Fig 4 In vivo imaging of tumors after apoptosis induction. (A) Cy7.5-labelled PSP1peptide, control peptide, or annexin V was systematically injected into the tail vein of tumor-bearing nude mice treated with camptothecin 24 hrs before injection. The same amount of annexin V was also injected into non-camptothecin-treated tumor-bearing mice as a control. The homing of the peptides was examined after the indicated times using an optical imaging system. The white dotted circles indicate the tumors. (B) Histological examination of tumor tissues after homing of PSP1 and annexin V, performed under a fluorescence microscope. Tumor cell apoptosis was observed by TUNEL staining.

[4] = tested on: apoptotic cells in tumor tissue; experiment: histological examination of tumor tissues after in vivo homing; parameters: species or system BALB/c nude mice; human H460 tumor; settings: Cy7.5-labeled, i.v., tumors removed at 6 hr, camptothecin-treated mice
Procedure: At the 6 hr time point, the animals were euthanized with CO2, and tumor tissues were removed from a subset of animals. The tumor tissues were then fixed by incubating with 4% paraformaldehyde (PFA) overnight, followed by freezing for cryosectioning and immunohistochemical studies under a fluorescence microscope (Zeiss, Oberkochen, Germany). Apoptosis in the tumor tissues was assessed by […] terminal deoxynucleotidyl transferase-mediated dUTP nick-end labelling (TUNEL) staining in accordance with the manufacturer’s instructions (Chemicon Int., Temecula, CA, USA).  Fig 4 In vivo imaging of tumors after apoptosis induction. (A) Cy7.5-labelled PSP1peptide, control peptide, or annexin V was systematically injected into the tail vein of tumor-bearing nude mice treated with camptothecin 24 hrs before injection. The same amount of annexin V was also injected into non-camptothecin-treated tumor-bearing mice as a control. The homing of the peptides was examined after the indicated times using an optical imaging system. The white dotted circles indicate the tumors. (B) Histological examination of tumor tissues after homing of PSP1 and annexin V, performed under a fluorescence microscope. Tumor cell apoptosis was observed by TUNEL staining.

[5] = molecular target: PS liposomes; experiment: SPR binding to PS liposomes
From the text: To compare the kinetics of annexin V and PSP1 peptide binding to PS liposomes, SPR spectroscopy was employed (Reichert Inc, NY, USA). PC and PS liposomes (0.8:0.2 PC:PS) were generated as previously described and were homogenously purified using a liposome mini-extruder with a 100 nm membrane filter, based on the manufacturer’s protocol (Avanti Polar Lipids). […] Briefly, phytosphingosine was immobilized by activating the carboxymethyl groups on dextran-coated chips (Reichert Life Sciences) through a reaction with N-hydroxysuccinimide (Sigma-Aldrich), followed by covalent bonding of the ligands to the chip surface via amide linkages and blocking of excess activated carboxyls with ethanolamine. The purified PS or PC liposomes were captured on the phytosphingosine layer at a flow rate of 5 μl/min in liposome immobilization buffer (10 mM Tris-HCl (pH 8.0), 100 mM NaCl, and 2 mM CaCl2). To use the PC-immobilized surface as a control, the injected PS or PC liposome volume was adjusted to an immobilization level of approximately 4000±200 RU. Different concentrations of the PSP1 peptide (0.313 to 5 μM) and annexin V (3.13 to 100 nM) in running buffer (10 mM Tris-HCl (pH 8.0), 100 mM NaCl, 2 mM CaCl2, and 62.5 μg/ml BSA) were allowed to flow over the surfaces bound to the immobilized liposomes for 3 min at a rate of 30 μl/min. The sensor surface was regenerated after each association and dissociation cycle by injecting 10 mM EDTA for 20 s, followed by 50 mM NaOH for 10 s. The interaction of the ligand and the analyte was analyzed using Scrubber 2 Biologic software (http://www.biologic.com.au/). The binding kinetics was assessed by determining the association (kon), dissociation (koff), and equilibrium (KD) constants.
The in vitro binding affinity of PSP1 and annexin V for PS was further examined using SPR analysis (Fig. 2). […] We immobilized PS liposomes on the surface of an SPR chip, applied a series of different concentrations of PSP1 or annexin V, and examined the binding kinetics. PS-specific binding was determined by subtracting binding responses to a PC liposome-coated surface from those obtained using a PS liposome-coated […] surface.
Fig 2 In vitro SPR analysis of PSP1 and annexin V binding to PS liposomes. (A) The indicated concentrations of PSP1 were injected onto the liposome-immobilized surface. Responses (RU) from the PC liposome-coated surface (reference) were subtracted from those from the PS:PC (2:8) liposome surface to monitor PS-specific binding. The equilibration binding constant (KD) and the association (Kon) and dissociation (Koff) rate constants were estimated using the Scrubber program. (B) Plots of the RU values of annexin V at the indicated concentrations.

[6] = tested on: untreated cancer cells; experiment: binding to normal (untreated) cancer cells, microscopy; format: cell-based, human; settings: 40 μg/ml; data not shown
Procedure: (A) Apoptotic H460 cells in a chamber slide were incubated with 20 μg of PSP1, control peptide, or annexin V for 30 min. The cells were washed and fixed with 4% PFA before staining with DAPI. The confocal images were taken by laser confocal microscopy. (B) Normal H460 cells were subjected to incubation with the same amount of peptide or annexin V.

[7] = phage display; ref [17]; cited from earlier work
[8] = tested on: apoptotic H460 cells; experiment: confocal microscopy of binding to apoptotic H460 cells; format: cell-based, human; settings: FITC-labeled, 20 μg/ml, apoptotic H460 (etoposide 50 μM), 4°C, 1 hr
[9] = tested on: H460 cells; experiment: apoptosis induction in H460 cells, annexin V/PI staining; settings: etoposide 50 μM
[10] = tested on: H460 tumors; experiment: TUNEL staining of tumors; format: in vivo, BALB/c nude mice; human H460 tumor; settings: camptothecin 10 mg/kg single dose
Procedure: as §4
At the 6 hr time point, the animals were euthanized with CO2, and tumor tissues were removed from a subset of animals. The tumor tissues were then fixed by incubating with 4% paraformaldehyde (PFA) overnight, followed by freezing for cryosectioning and immunohistochemical studies under a fluorescence microscope (Zeiss, Oberkochen, Germany). Apoptosis in the tumor tissues was assessed by […] terminal deoxynucleotidyl transferase-mediated dUTP nick-end labelling (TUNEL) staining in accordance with the manufacturer’s instructions (Chemicon Int., Temecula, CA, USA).

[11] = PS:PC (2:8) liposomes, PC response subtracted, Tris-HCl pH 8.0, 2 mM CaCl2, Scrubber, value from picture

Compound: CLSFFPSYC [FF-PSP1, mutant PSP1 peptide with phenylalanine instead of tyrosine, …]
- binding of PSP1 mutants to apoptotic H460 cells (FACS) [1]: bound to the apoptotic cells as much as PSP1
- binding to normal H460 cells (FACS) [2]: nonspecific binding to the normal cells

Compound: NSSSVDK (also: FITC label, position not given here) [control peptide, control peptide (NSSSVDK), reference compound]
- non-specific fluorescence in surrounding non-tumor tissues ([3]; Cy7.5-labeled control peptide 100 μg/200 μl i.v., camptothecin-treated tumor-bearing mice): surrounding non-tumor tissues absorbed fluorescence at the early time points, this non-specific signal vanished over time
- in vivo tumor homing ([3]; Cy7.5-labeled): did not show specific tumor-homing signals
- tumor-homing fluorescence signal in tumor cryosections [4]: No signals were observed in tumor tissues

Compound: CLSYYPSYC [PSP1, peptide-based phosphatidylserine (PS) indicator PSP1 (…)]
- pKd ([5]; PS liposomes, PC liposome response subtracted, Tris-HCl pH 8.0, 2 mM CaCl2, read-out: in vitro binding affinity (equilibrium binding constant, KD)): 4.97
- PS binding kinetics in words ([5]; PS liposomes, real-time association and dissociation): binds much more slowly to PS but, once bound, forms a more stable complex (slow dissociation) compared with annexin V; also recorded: dissociation of PSP1 was slow, even slower than that of annexin V
- association rate constant (Kon) [5, 11]: 5.05±3.00×10^1 M^-1S^-1
- dissociation rate constant (Koff) [5, 11]: 2.87±0.95×10^-4 S^-1
- binding to untreated cancer cells [6]: a small degree of binding to untreated cancer cells
- interaction with PS on apoptotic cells [7]: specific interaction with PS on apoptotic cells
- binding to apoptotic H460 cells (FACS) ([1]; etoposide 50 μM 22 hrs, 2, 10, 20, 50 μg/ml, binding buffer 10 mM Hepes pH 7.4, 150 mM NaCl ± 2 mM CaCl2, 4°C, 1 hr): specifically bound to apoptotic H460 cells in a concentration-dependent manner; also recorded: specifically binds to apoptotic cells through PS exposed on the apoptotic cell surface
- duration of in vivo fluorescence signal in tumor region ([3]; Cy7.5-labeled, i.v. tail vein, camptothecin 10 mg/kg 24 hrs before, PSP1 10 μg/200 μl (23.16 μM), annexin V 100 μg/200 μl (14.3 μM)): more than 12 hrs
- in vivo tumor homing ([3]; Cy7.5-labeled): generated apoptosis/tumor-specific signals after cancer treatment in the animal model; also recorded: appeared higher than those of annexin V for the entire measurement period; also recorded: rapidly observed in the tumor region; also recorded: specifically homed to apoptotic cells in tumors after cancer therapy; also recorded: specifically targeted apoptotic cells in tumors following systemic administration
- apoptotic cell-specific signal (confocal microscopy) [8]: apoptotic cell-specific signals were clearly detected; also recorded: targets apoptotic tumor cells more efficiently than annexin V does
- tumor-homing fluorescence signal in tumor cryosections [4]: significantly more prominent than that of annexin V

Compound: COc1cc([C@@H]2c3cc4c(cc3[C@@H](O[C@@H]3O[C@@H]5CO[C@@H](C)O[C@H]5[C@H](O)[C@H]3O)[C@H]3COC(=O)[C@H]23)OCO4)cc(OC)c1O [etoposide]
- effect of etoposide on H460 cells in words [9]: without evidence of significant necrosis; also recorded: caused PS exposure; also recorded: did not significantly change the cell shape or number
- H460 cells undergoing apoptosis ([9]; 22 hrs, serum-free media, annexin V/PI FACS): more than 50%

Compound: CC[C@@]1(O)C(=O)OCc2c1cc1n(c2=O)Cc2cc3ccccc3nc2-1 [camptothecin]
- in vivo apoptosis in tumors (TUNEL) [10]: increased area of in vivo apoptosis

Compound: CLSAAPSYC [AA-PSP1, mutant PSP1 peptide with alanine instead of tyrosine, …]
- binding of PSP1 mutants to apoptotic H460 cells (FACS) [1]: significantly diminished by replacement of tyrosine by alanine
